{"source": "patent EP1254251B1", "about": "“NEUROSTEROIDS AS MARKERS FOR ALZHEIMER'S DISEASE” (Georgetown University, priority 2000, dated 2001)", "key": {"MGM-1 human glioma cells": {"system": "MGM-1 human glioma cells", "assay": "ROS measurement by 2,7-DCF fluorescence", "assay_type": "cell-based", "conditions": "MGM-1, 50 mM Aβ, vs control, p < 0.01", "protocol": "β-Amyloid Regulation of the Alternative Pathway: MGM-1 cells were plated on 96 well (~5,000 cells/well, for ROS measurements) or 24 well (~15,000 cells/well, for D measurements) plates (Corning Costar, Acton, MA). At the same time, 1 mg Ab (Ab (1-42), AnaSpec Inc., San Jose, CA) was dissolved in 0.5 ml serum-free media and incubated at 4C for aggregation. 24 hours later, cells were incubated in DMEM with 10% fetal bovine serum and […] or […] and 10 mM Vitamin E (Sigma, St. Louis, MO). Control samples were incubated in DMEM with 10% FBS. Cells were incubated at 37C and 6% CO2 for at least 12 hours and processed for ROS generation (see below) or D synthesis as described above for the alternative experiments.\nTreatment media was removed and the cells were washed with PBS. The fluorescent probe 2,7- dichlorofluorescin diacetate (2,7-DCF, Molecular Probes, Inc., Eugene, OR) was used to measure levels of oxidative stress (48). Cells were incubated with […] 2,7-DCF, fluorescence was measured at 485nm/535nm using the Victor^2 Multilabel Counter (EG&G Wallac, Gaithersburg, MD) and values of cellular fluorescence were obtained."}, "MGM-1": {"system": "MGM-1", "assay": "Alternative pathway D synthesis in cells treated with FeSO4, or with Ab with or without Vitamin E (TLC, RIA)", "assay_type": "cell-based, human", "conditions": "MGM-1, 50 mM Aβ, vs control, p < 0.01", "protocol": "Alternative Pathway: To determine the amount ofD synthesized by the alternative pathway cells were treated as previously described. (15). In brief, cells were washed and oligodendrocytes and astrocytes were incubated with increasing concentrations of FeSO4 in serum free media, with and without SU 10603 (10 mM); neurons were incubated in serum free media containing 5 mM P plus FeSO4 with and without 10 mM SU 10603. After two hours, cells and media were homogenized and extracted as described above. Extracts were run on C 18 TLC plates (Whatman, Clifton, NJ) with a mobile phase of 95% methanol (v/v); radiolabeled standards for P, progesterone, and D were run on each plate, and appropriate steroid fractions were collected for each sample. TLC fractions were extracted with 2 ml diethyl ether (Fluka, New York) and evaporated. TLC extracts were assayed by specific radioimmunoassay (RIA). […]\nRIA using antibodies specific for each steroid (ICN Pharmaceuticals, Costa Mesa, CA Mesa) was used to measure P, progesterone and D levels. The data were analyzed using the IBM-PC RIA Data Reduction Program (version 4.1) from Jaffe and Associates (Silver Spring, MD). Levels of β-amyloid species in AD and control brain samples were analyzed using 4G8 (Senetex PLC, Napa, CA), a monoclonal antibody to β-amyloid peptide that recognizes amino acids 17-24. […]"}}}
{"substance": "Ab: Ab (1-42), AnaSpec Inc.; β-amyloid, a component of Alzheimer's disease plaques", "values": [{"measurement": "2,7-DCF fluorescence (ROS)", "setting": "MGM-1 human glioma cells", "result": "significant increase"}, {"measurement": "D levels", "setting": "MGM-1", "result": "increased D levels significantly"}]}
